Reference: patent publication US11781119B2, “Variant forms of urate oxidase and use thereof” (Horizon Therapeutics USA, Inc., priority 2005, dated 2023)

Key:
Type in all cases: biochemical
Conditions in all cases: uric acid; sodium borate buffer, pH 9.2
[1] = tested on: Pig-baboon chimera (PBC) uricase, recombinant, pig uricase codons 1-225 joined in-frame to codons 226-304 of baboon uricase
From the text: Pig-baboon chimera (PBC) uricase was constructed in order to gain higher expression, stability, and activity of the recombinant gene. […] The PBC uricase cDNA consists of the pig uricase codons 1-225 joined in-frame to codons 226-304 of baboon uricase.

[2] = molecular target: T1, Aspergillus flavus uricase, native, commercial preparation (Merck) (Aspergillus flavus, UniProt Q00511)
T1 sequence (Q00511 1-302): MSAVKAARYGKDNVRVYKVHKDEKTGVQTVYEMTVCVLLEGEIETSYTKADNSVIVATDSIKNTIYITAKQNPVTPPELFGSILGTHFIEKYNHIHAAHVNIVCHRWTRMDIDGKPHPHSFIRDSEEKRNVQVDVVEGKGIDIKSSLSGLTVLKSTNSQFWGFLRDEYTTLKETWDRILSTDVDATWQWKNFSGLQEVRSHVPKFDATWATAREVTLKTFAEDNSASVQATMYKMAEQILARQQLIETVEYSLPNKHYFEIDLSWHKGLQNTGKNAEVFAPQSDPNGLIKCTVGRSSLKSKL
Procedure: (§1) Activity of uricase was measured by a UV method. […] Uricase potency is expressed in activity units per mg protein (U/mg).
(§2) The absorbance change with time (ΔA292 per minute) was derived from the linear portion of the curve.
(§3) The specific activity (potency) of uricase was calculated by dividing the activity in U/ml with protein concentration in mg/ml.

[3] = molecular target: T2, Pig uricase, native, commercial preparation (Sigma) (Sus scrofa, UniProt P16164)
T2 sequence (P16164 1-304): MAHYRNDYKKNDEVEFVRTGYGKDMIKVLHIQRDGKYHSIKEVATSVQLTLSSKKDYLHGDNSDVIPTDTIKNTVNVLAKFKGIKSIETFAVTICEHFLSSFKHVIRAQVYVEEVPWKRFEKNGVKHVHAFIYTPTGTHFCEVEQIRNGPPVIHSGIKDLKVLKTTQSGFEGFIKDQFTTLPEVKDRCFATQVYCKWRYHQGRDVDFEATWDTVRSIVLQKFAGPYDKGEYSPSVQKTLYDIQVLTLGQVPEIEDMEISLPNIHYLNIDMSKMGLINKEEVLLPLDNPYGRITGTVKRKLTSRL
Procedure: as §1, §2, §3

[4] = tested on: Pig-baboon chimera (PBC) uricase variant PBC-ΔNC, recombinant, N-terminal six residues and C-terminal tri-peptide removed, SEQ ID NO. 12
Procedure: as §1, §2, §3

O=c1[nH]c(=O)c2[nH]c(=O)[nH]c2[nH]1 [Uric Acid, uric acid]
Km [1]: 4.87 µM
Km [2]: 23.5 µM
Km [3]: 5.85 µM
Km [4]: 4.3 µM
